In patent publication US20100158842A1, “NATURAL SKIN WHITENER: 4-HYDROXY-OXINDOLE-3-ACETIC ACID” (SPECTRUM DYNAMICS LLC, priority 2008, published 2010):

Columns and labels:
[1] = Storage stability of lyophilized powder; type: physicochemical; details: milligram quantities, under vacuum
Source text: Given these physical properties, Tasselin A has been formulated in both lotion and cream as described in the Tables III, IV, and V below.

[2] = test system: mushroom tyrosinase enzyme; assay: Anti-tyrosinase activity assay; type: biochemical; details: 150 microgram/ml, 30 minute test end-point; FIG. 7
Procedure: For this purpose, a modified assay method of anti-tyrosinase activity described in the literature was employed (Chang T S and Tseng M J., Mar. Sci. Technol., 14: 190-193, 2006). The assay employs mushroom tyrosinase enzyme to enzymatically convert a colorless solution tyrosine to a black melanin product. The anti-tyrosinase activity is measured by the reduction of black color development in the presence of the inhibitor, which in this instance is Tasselin A. FIG. 7 is a graph showing the inhibiting effect of two different concentrations of purified Tasselin A on tyrosinase activity as 50% reduction at a concentration of 150 microgram/ml over the 30 minute test end-point.

[3] = DPPH* free-radical scavenging assay; details: 100 microgram per milliliter in ethanol; FIG. 4
Procedure: Purified Tasselin A has been assayed and determined its free-radical scavenging activity. FIG. 4 present typical results of standardized 1,1-diphenyl-2-picrylhydrazyl radical (DPPH*) reagent test as previously described (Bonina et al, 2002). This test was previously disclosed and employed on crude corn tassel alcoholic extracts (Wille J J: U.S. Pat. No. 7,399,439). Here we confirm that purified Tasselin A has potent antioxidant activity. A 1.0 mg/ml stock solution of purified Tasselin A in ethanol was diluted with anhydrous ethanol to a final concentration of 100 microgram per milliliter and assayed in the DPPH* free-radical scavenging assay.

human forearm skin = assay: Inhibition of skin irritation induced by 24-hour occlusion with benzalkonium chloride; type: in vivo; details: 0.01% (100 micrograms/milliliter) co-administered with 0.4% benzalkonium chloride, volar forearm, FIG. 5
Source text: The anti-irritant activity of purified Tasselin A has been assessed by determining its ability to inhibit skin irritation induced by 24-hour occlusion of human forearm skin with a solution of 0.4% benzalkonium chloride (BC) with or without inclusion of 0.01% (100 micrograms/milliliter) of purified Tasselin A. FIG. 5 is a photograph of the volar surface of a subject forearm immediately after removal of the occlusive dressing. There are two circled skin areas: A) control site, and B) test site.

Solubility = type: physicochemical; details: water, methanol/ethanol
Source text: There is also disclosed here a method of making a cosmetic ingredient with the chemical composition and structure of 4-hydroxy-oxindole-3-acetic acid. The chemical compound was identified in extracts of corn tassels. In particular, seasonally aromatic corn tassels were harvested as previously described in U.S. Pat. No. 7,399,493 with particular attention to harvesting the tassel at the peak time of aroma production. They were collected simply by shaking the tassels directly into collecting sacks conveyed to the laboratory where they are immersed directly into ice-cold absolute alcohol and extracted for 24-48 hours at 0-4° C. Crude alcohol extracts have a light green color and a fragrance reminiscent of bee's wax. The extract is further clarified low speed centrifugation followed by filtration through a 0.4 micron nitrocellulose filter and the resulting sterile solution stored at −20° C. until further needed or then concentrated by vacuum rotary evaporation to obtain a slightly viscous mass. This material served as the starting point for chemical analysis. Dilutions of the ice-cold crude extract was submitted to preliminary assessment of its anti-oxidant activity. High pressure liquid chromatography (HPLC) was employed to determine the principle phenolic components of the tassel extract. […]

- reduction of tyrosinase activity [2]: 50%
- solubility (Solubility): both water and methanol/ethanol soluble
SMILES: O=C(O)CC1C(=O)Nc2cccc(O)c21 (centres unmarked) [Tasselin A, 2,3-dihydro-4-hydroxy-2-oxo-1H-indole-3-acetic acid]
- storage as dry powder [1]: successfully lyophilized and stored as a dry powder under vacuum for up to a year
- reduction in absorbance measured at 595 nm [3]: 40%
- visual scoring of skin irritation (swelling, erythema) at test site (human forearm skin): no swelling or redness
